In brackets after ≈: the same amount, converted by molar mass. Read-outs that look alike come from different tables or passages of the source. Bounds are passed on as bounds.

The subject of data set [1] is polioviruses 1, 2 and 3. Nature of the data set: organism not typed. The settings on record: read-out: EC50 against polioviruses 1, 2 and 3. The class given is cell-based.
In data set [2] the test system is Polio 3. Nature of the data set: microbe, parasite or virus in culture. The class given is cell-based, poliovirus 3. The settings on record: Enterovirus C, BGM, read-out: Polio 3 EC50.
Data set [3] has as its system Rhino 2. Description: Multicycle CPE reduction assay. Format: cell-based, rhinovirus 2. The settings on record: Enterovirus; 37° C. in HeLa cells. The method, then: (§1) The test compounds were evaluated for anti-picornavirus activity by a multicycle cytopathic effect (CPE) reduction assay. The antiviral activity was initially determined using an MTS [3-(4,5-dimethylthiazol-2-yl)-5-(3-carboxymethoxyphenyl)-2-(4-sulfophenyl)-2H-tetrazolium]-based CPE reduction assay.
(§2) In this regard, cells grown to confluence in 96-well plates were infected with 100 50% cell culture infective doses (CCID50) of virus. After an adsorption period of 2 hrs at 37° C., virus was removed and serial dilutions of the compounds were added. […] After removal of the medium, 90 μl of a culture medium and 10 μl of MTS-phenazine methosulfate (Promega, Leiden, The Netherlands) were added to each well. After an incubation period of 2 hrs at 37° C., the optical density (OD) of each well was read at 498 nm in a microplate reader.
(§3) CPE values for evaluating antiviral activity were calculated using the following Mathmatic Formula 3: […]
(§4) The 50% effective concentration (EC50) and the 50 cytotoxic concentration (CC50) were defined as the concentrations of compound that offered 50% protection against virus-induced CPE and that killed cells by 50%, respectively, and were calculated using logarithmic interpolation.

Data set [4] relates to Coxsackie-virus A24 (DN). Description: Cytopathic effect (CPE) inhibition assay. The settings on record: Table 3, MRC-5, 37° C., 2 days; for EC50: Enterovirus C, MRC5, 48 h. The class given is cell-based, Coxsackievirus A24. A general note: Protection from cytopathic effect is a common read-out in antiviral testing.
In data set [5] the test system is Rhino 63. Nature of the data set: Multicycle CPE reduction assay. The settings on record: Enterovirus; 37° C. in HeLa cells. The class given is cell-based, rhinovirus 63. The method, then: as §1, §2, §3, §4
The subject of data set [6] is Rhino 89. Description: Multicycle CPE reduction assay. The class given is cell-based, rhinovirus 89. The settings on record: Enterovirus; 37° C. in HeLa cells. As for the experimental part: as §1, §2, §3, §4
The subject of data set [7] is Rhino 15. Description: Multicycle CPE reduction assay. Format: cell-based, rhinovirus 15. The settings on record: Enterovirus; 37° C. in HeLa cells. The method, then:
as §1, §2, §3, §4

Data set [8] deals with Coxsackie A9. Description: Multicycle CPE reduction assay. Format: cell-based, Coxsackievirus A9. The settings on record: Enterovirus B, 37° C. in BGM cells.
The subject of data set [9] is Coxsackie-virus B1. Description: Cytopathic effect (CPE) inhibition assay. Format: cell-based, Coxsackievirus B1. The settings on record: Table 3, HeLa, 37° C., 2 days; for EC50: Enterovirus B, HeLa37, 48 h, read-out: EC50 Coxsackie-virus B1.
The subject of data set [10] is Rhino 41. Nature of the data set: Multicycle CPE reduction assay. Format: cell-based, rhinovirus 41. The settings on record: Enterovirus; 37° C. in HeLa cells. The method, then: as §1, §2, §3, §4
Data set [11] has as its system Rhino 85. Nature of the data set: Multicycle CPE reduction assay. The settings on record: Enterovirus; 37° C. in HeLa cells. The class given is cell-based, rhinovirus 85. The method, then: as §1, §2, §3, §4
Data set [12] has as its system Rhino 14. Description: Multicycle CPE reduction assay. The settings on record: Enterovirus; 37° C. in HeLa cells. Format: cell-based, rhinovirus 14. As for the experimental part: as §1, §2, §3, §4
Data set [13] concerns Polio-virus 3. Nature of the data set: microbe, parasite or virus in culture. The settings on record: for EC50: Enterovirus C, HeLa37, 48 h, read-out: EC50 Polio-virus 3. Format: cell-based, Poliovirus 3.
In data set [14] the test system is Rhino 45. Description: Multicycle CPE reduction assay. The settings on record: 37° C. in HeLa cells. Format: cell-based, rhinovirus 45. The method, then: as §1, §2, §3, §4
Data set [15] concerns Polio 1. Nature of the data set: microbe, parasite or virus in culture. The class given is cell-based, poliovirus 1. The settings on record: Enterovirus C, BGM, read-out: Polio 1 EC50.
Data set [16] has as its system Entero 71. Description: Multicycle CPE reduction assay. Format: cell-based, enterovirus 71. The settings on record: Enterovirus A; 37° C. in RD cells. As for the experimental part: as §1, §2, §3, §4
The subject of data set [17] is Echo 11. Description: Multicycle CPE reduction assay. The settings on record: Enterovirus B; 37° C. in BGM cells. The class given is cell-based, echovirus 11. As for the experimental part: as §1, §2, §3, §4
Data set [18] relates to Coxsackie-virus B3. Description: Cytopathic effect (CPE) inhibition assay. The settings on record: Table 3, HeLa, 37° C., 2 days; for EC50: Enterovirus B, HeLa37, 48 h, read-out: EC50 Coxsackie-virus B3. The class given is cell-based, Coxsackievirus B3.
The test system of data set [19] is Echo 9. Nature of the data set: Multicycle CPE reduction assay. The class given is cell-based, echovirus 9. The settings on record: Enterovirus B, MRC5; 37° C. in MRC-5 cells. The method, then: as §1, §2, §3, §4
Data set [20] can be described thus: in vitro. The settings on record: human, CC50.
Data set [21] has as its system Rhino 29. Nature of the data set: Multicycle CPE reduction assay. The class given is cell-based, rhinovirus 29. The settings on record: Enterovirus; 37° C. in HeLa cells. The method, then: as §1, §2, §3, §4
The test system of data set [22] is Rhino 9. Nature of the data set: Multicycle CPE reduction assay. Format: cell-based, rhinovirus 9. The settings on record: Enterovirus; 37° C. in HeLa cells. As for the experimental part:
as §1, §2, §3, §4

Data set [23] deals with Rhino 39. Description: Multicycle CPE reduction assay. The class given is cell-based, rhinovirus 39. The settings on record: Enterovirus; 37° C. in HeLa cells. The method, then:
as §1, §2, §3, §4

Data set [24] has as its system Coxsackie B3. Nature of the data set: Multicycle CPE reduction assay. Format: cell-based, Coxsackievirus B3. The settings on record: Enterovirus B, 37° C. in Vero cells. The method, then:
as §1, §2, §3, §4

Data set [25] deals with echovirus 9 and echovirus 11. Nature of the data set: Multicycle CPE reduction assay, text summary. The settings on record: Enterovirus B; Table 5; read-out: EC50 against echovirus 9 and echovirus 11. Format: cell-based.
Data set [26] can be described thus: Cytotoxicity (CC50), MTS-based multicycle CPE reduction assay, Experimental Example 2. The settings on record: Table 5. The class given is cell-based. The method, then:
as §1, §2
CPE values for evaluating cytotoxicity were calculated using the following Mathmatic Formula 4: […]
as §4

The subject of data set [27] is Coxsackie-virus A24 (HG). Description: Cytopathic effect (CPE) inhibition assay. Format: cell-based, Coxsackievirus A24. The settings on record: Table 3, MRC-5, 37° C., 2 days; for EC50: Enterovirus C, MRC5, 48 h.
The test system of data set [28] is Rhino 70. Description: Multicycle CPE reduction assay. Format: cell-based, rhinovirus 70. The settings on record: 37° C. in HeLa cells, read-out: Rhino 70 EC50. As for the experimental part:
as §1, §2, §3, §4

Data set [29] concerns mock-infected cells (HeLa, MRC-5, RD). The settings on record: human.
Data set [30] deals with Polio-virus 2. Nature of the data set: microbe, parasite or virus in culture. Format: cell-based, Poliovirus 2. The settings on record: Enterovirus C, read-out: EC50 Polio-virus 2.
Data set [31] deals with Coxsackie-virus B4. Description: Cytopathic effect (CPE) inhibition assay. Format: cell-based, Coxsackievirus B4. The settings on record: Enterovirus B, HeLa37, 48 h; Table 3; HeLa, 37° C., 2 days.

On to `CC(=O)Oc1cc(C(C)C)ccc1C1(OC(C)=O)C(=O)c2cccc(N)c2C1=O` (stereo not shown) [Example 36, Acetic acid 2-(2-acetoxy-4-isopropyl-phenyl)-4-amino-1,3-dioxo-indan-2-yl ester], for which the melting point fell in the range of 148 to 151 °C. Moreover, in data set [1], the concentration for a half-maximal effect (EC50) was found to be 10 nM. Besides, in data set [2], the EC50 is < 10 nM. Besides, the EC50 in data set [3] turned out to be 7800 ± 570 nM. For the same compound, in data set [4], the EC50 is < 0.1 µg/mL. In addition, the 50% effective concentration (EC50) in [5] is > 10000 nM. The compound further came in with an EC50 in data set [6] of 490 ± 38 nM. For the same compound, a half-maximal response in data set [7] (EC50) required 1500 ± 240 nM. In data set [8], this compound registered an EC50 of 7 ± 0.18 nM. Also, the concentration for a half-maximal effect (EC50) in [9] was < 0.01 µg/mL. The 50% effective concentration (EC50) in data set [10] was 540 ± 3 nM. This compound gave an EC50 in data set [11] of 7500 ± 1200 nM. The compound also showed a concentration for a half-maximal effect (EC50) in data set [12] of 350 ± 320 nM. In addition, in [13], the EC50 was < 0.01 µg/mL. The EC50 in [14] (listed as Ex. 36) was < 78 nM. Also, the EC50 in data set [14] (Enterovirus, HeLa) is ≤ 78 nM. In addition, the EC50 in data set [15] was found to be 220 ± 50 nM. Besides, the response in [16] was half-maximal at 6.7 nM (EC50). The same compound returned a concentration for a half-maximal effect (EC50) in data set [17] of 8.2 ± 1.9 nM. In data set [18], the EC50 is < 0.01 µg/mL. In [19], this compound displayed an EC50 of 11 ± 3.2 nM. In data set [20], this compound registered a CC50 of 9.42 µg/mL (≈ 23.8 µM). In addition, the EC50 in data set [21] worked out at 5500 ± 720 nM. Also, the midpoint of the response in data set [22], the EC50, lay at 1200 ± 120 nM. The compound also gave an EC50 in [23] of 1400 ± 200 nM. In data set [24], the EC50 was < 10 nM. Besides, in [25], the EC50 stood at 8.2 nM. The CC50 at 3 days in data set [26] is > 50000 nM. Also, the 50% effective concentration (EC50) in data set [27] was < 0.01 µg/mL. In addition, the EC50 in data set [28] (Enterovirus, HeLa) was ≤ 78 nM. The EC50 in [28] (listed as Ex. 36) is > 78 nM.
`CCCCC(=O)NC1(c2ccc(C(C)C)cc2OC(=O)CCCC)C(=O)c2ccccc2C1=O` [Example 69, 2-(1,3-Dioxo-2-pentanamido-2,3-dihydro-1H-inden-2-yl)-5-isopropylphenyl pentanoate] returned a melting point of 128 to 130 °C. Moreover, the “EC50 Coxsackie-virus A24 (DN)” value in data set [4] is <1.0 µg/mL. Besides, in data set [9], the “EC50 Coxsackie-virus B1” value is <0.01 µg/mL. Besides, the “EC50 Polio-virus 3” value in data set [13] (Table 3, HeLa, 37° C., 2 days) is <1.0 µg/mL. Also, the “EC50 Coxsackie-virus B3” value in data set [18] was <0.01 µg/mL. In [29], the CC50 was >117 µg/mL. The “EC50 Coxsackie-virus A24 (HG)” value in data set [27] is <1.0 µg/mL.
Consider `CCCCC(=O)NC1(c2ccc(C(C)C)cc2OC(=O)CCCC)C(=O)c2ccccc2C1=O` [Example 49, 2-(1,3-Dioxo-2-pentanamido-2,3-dihydro-1H-inden-2-yl)-5-isopropylphenyl pentanoate], for which the half-maximal effective concentration (EC50) in [4] is < 1 µg/mL; in data set [9], < 0.01 µg/mL; in [13], < 1 µg/mL; in data set [18], < 0.01 µg/mL; in data set [30], < 1 µg/mL; in [31], < 0.01 µg/mL. For the same compound, the concentration for a half-maximal effect (EC50) in data set [27] was < 1 µg/mL. Also, the CC50 in [20] was > 100 µg/mL.

In general, EC50 refers to the concentration giving half of the maximal effect. The term melting point denotes the temperature, or range, at which the solid turns liquid.

(Values after patent publication US9833423B2 (KOREA RESEARCH INSTITUTE OF CHEMICAL TECHNOLOGY, priority 2011, dated 2017).)
